Laboratory results reported in US12098362B2, “Uses of Daldinia sp. or volatile organic compounds derived therefrom” (THE STATE OF ISRAEL, MINISTRY OF AGRICULTURE & RURAL …, priority 2015, dated 2024).

Key:
Aspergillus niger = assay: Chemical mixtures bioactivity test in sealed Petri dish; format: cell-based; settings: single compound
Experimental: (§1) All chemical compounds were purchased from Sigma (Rehovot, Israel) and were of the highest purity available. The bioactivity of the mixtures combined on the VOCs identified, was determined as follows: Petri dishes (90 mm, 80 mL air volume) containing 15 mL of media (PDA amended with 12 μg/mL tetracycline) were inoculated (triplicates, 2 plugs each) with the test fungi A. alternata and B. cinerea (in the same plate), P. digitatum and A. niger (in separate plates). A cup of an Eppendorf tube was placed in the middle of the plate to which increasing volumes (0-200 μL) of the mixture was added. Then, the plates were sealed with parafilm and incubated at room temperature for two days before comparing the growth of the test fungi in those plates to control plates in the absence of the mixture. The ability of two mixtures: Mixture A and Mixture B to control other plant pathogenic fungi was determined as described above except that the concentration of the mixture was constant (1 mL/L) and the growth inhibition was estimated after 6 days. The viability of the test fungi after exposure to the mixtures was examined as described for D. concentrica.
(§2) The activity of each chemical component of the mixture was examined separately as described for the mixtures. […]

Penicillium digitatum = assay: as above; format: cell-based; settings: single compound
Experimental: as §1, §2

M. javanica J2 larvae = assay: Phenotype of second stage juveniles under a stereomicroscope after exposure; format: in vivo, Meloidogyne javanica; settings: 0.05 mL/L preloaded to 25 mg of perlite particles; 48 hours at 25° C.
Experimental: FIGS. 20A-D show second stage juveniles' phenotype following exposure to D. concentrica culture, synthetic mixture, and the compound 4-heptanone. The nematodes were exposed to each condition for 48 hours at 25° C. in the dark before visualization. FIG. 20A. Control—non treated nematodes. FIG. 20B. Nematodes exposed to three D. concentrica culture plates (50 mm in diameter with 5 mL growth medium) pre-grown for 4 days. FIG. 20C. Nematodes exposed to 0.25 mL/L of synthetic mixture preloaded to 125 mg of perlite particles. FIG. 20D. Nematodes exposed to 0.05 mL/L of the compound 4-heptanone preloaded to 25 mg of perlite particles. The bar indicates […].
The effects of D. concentrica, synthetic mixture and the pure compound 4-heptanone were also examined visually under a stereomicroscope. The results are presented in FIGS. 20A-D wherein FIG. 20A represents non-treated nematodes; FIG. 20B represents nematodes exposed to three D. concentrica culture plates (50 mm in diameter with 5 mL growth medium) pre-grown for 4 days; FIG. 20C represents nematodes exposed to 0.25 mL/L of synthetic mixture preloaded to 125 mg of perlite particles; FIG. 20D represents nematodes exposed to 0.05 mL/L of the compound 4-heptanone preloaded to 25 mg of perlite particles.

[1] = tested on: A. niger, B. cinerea, A. alternata, and P. digitatum; assay: Ability of commercially available VOC compounds to control growth of four test fungi; format: cell-based; settings: single commercially available compound
Experimental: as §1, §2

methyl-1,4-cyclohexadiene
growth inhibition of A. niger (Aspergillus niger): 10.8%
growth inhibition of P. digitatum (Penicillium digitatum): 3.1%

CCCC(=O)CCC [Mixture 4-heptanone, 4-heptanone]
nematode phenotype (body shape, viability) (M. javanica J2 larvae): most of the nematodes demonstrated the typical straight body shape with nearly no curved appearance

COc1cc2ccccc2cc1O [3-methoxy-2-naphthol]
ability to control the growth of A. niger, B. cinerea, A. alternata, and P. digitatum [1]: failed to inhibit fungal growth

OCCc1ccccc1 [phenyl ethyl alcohol]
ability to control the growth of A. niger, B. cinerea, A. alternata, and P. digitatum [1]: failed to inhibit fungal growth
